Source: patent US10363299B2, “Compositions and methods for preventing and treating rhinovirus infections” (priority 2015, dated 2019)
Values joined by “and” are separate entries in the source; they are usually repeats but may differ in a detail not shown here. Equal values may be shown once.

How the values were obtained:
[1] = system: RV-specific CD4+ T cells; assay: Direct ex vivo pMHCII tetramer staining of non-stimulated PBMCs; type: cell-based, human; parameters: key to Validated: Y means validated; conditions: for Ex Vivo Frequency (# per 10^6 CD4): directly ex vivo, without culture, one value per subject; for Validated: reliable ex vivo signal
Excerpt: (§1) Peptide libraries consisting of 20mers with a 12 amino acid overlap were generated to span the VP1, VP2 and VP4 protein sequences of RV-A16, and VP1 and VP2 protein sequences of RV-A39 (UniprotKB accession # Q82122, Q5XLP5). […] Biologically relevant pMHCII complexes were identified by tetramer-guided epitope mapping (TGEM). This involved 2 steps: First, PBMC cultures established from subjects with known HLA-DR types were stimulated with RV peptide pools derived from VP1, VP2, or VP4, and then stained with pMHCII tetramer pools composed of HLA-DR molecules corresponding to those expressed in the test subject; Second, positive signals were de-convoluted by repeating and staining with single-peptide tetramers. Tetramers that gave strong positive signals (˜1% of total CD4+ T cells) in the single peptide-tetramer screen in more than one subject, were then re-tested for their ability to detect RV-specific CD4+ T cells in non-stimulated PBMCs (denoted as ex vivo analysis) in multiple subjects.
(§2) All experiments were performed in subjects expressing HLA-DR molecules corresponding to the selected tetramer. Precursor frequencies of circulating tetramer+ cells were then calculated by established methods. Tetramer+ cells were phenotyped for surface markers by staining PBMCs with PE-conjugated tetramers, labeling with anti-PE magnetic beads, enriching with an AutoMACS separator (Miltenyi Biotec, Auburn, Calif., USA), and then counterstaining for surface markers. A tetramer displaying an irrelevant peptide, GAD555-567, was used as a staining control. For simplicity, identified RV-A16 peptide epitopes were given a numerical designation.

[2] = system: CD4+ T cells; assay: Tetramer-guided epitope mapping (TGEM): pMHCII tetramer staining of PBMC cultures stimulated with RV peptides; type: cell-based, human; conditions: one value per subject
Excerpt: as §1, §2

[3] = HLA allele 1*0404 tetramer, peptide-stimulated PBMC cultures
[4] = HLA allele 1*1501 tetramer, peptide-stimulated PBMC cultures
[5] = HLA allele 1*0701 tetramer, peptide-stimulated PBMC cultures
[6] = HLA allele 1*1101 tetramer, peptide-stimulated PBMC cultures
[7] = HLA allele 1*0101 tetramer, tetramer-positive CD4+ T cells in peptide-stimulated PBMC cultures
[8] = HLA allele 1*0401 tetramer, peptide-stimulated PBMC cultures
[9] = HLA allele 1*0301 tetramer, peptide-stimulated PBMC cultures

Sequence: AAKDGHIGHIVMQYMYVPPG [VP1P17]
- Ex Vivo Frequency (# per 10^6 CD4) ([1]; HLA allele 1*0404 tetramer): 112 # per 10^6 CD4
- In Vitro Frequency (% CD4) [2, 3]: 2.00 % CD4 and 2.99 % CD4 and 2.60 % CD4

Sequence: ASKFHQGTLLVVMIPEHQLA [VP2P15]
- In Vitro Frequency (% CD4) [2, 3]: 0.98 % CD4 and 0.81 % CD4
- In Vitro Frequency (% CD4) [2, 4]: 0.55 % CD4 and 0.53 % CD4

Sequence: EITMVPSVAAKDGHIGHIVM [VP1P16]
- In Vitro Frequency (% CD4) [2, 5]: 0.60 % CD4 and 0 % CD4

Sequence: EQLHKVKVVTRIYHKAKHTK [VP1P29]
- Ex Vivo Frequency (# per 10^6 CD4) ([1]; HLA allele 1*1101 tetramer): 0 # per 10^6 CD4 (2×) and 3 # per 10^6 CD4
- In Vitro Frequency (% CD4) [2, 6]: 3.35 % CD4 and 2.79 % CD4

Sequence: FTYARFDSEITMVPSVAAKD [VP1P15]
- In Vitro Frequency (% CD4) [2, 5]: 0.26 % CD4 and 0 % CD4

Sequence: FWQHGQPFPRFSLPFLSIAS [VP1P22]
- Ex Vivo Frequency (# per 10^6 CD4) ([1]; HLA allele DRB5 tetramer): 10 # per 10^6 CD4 and 4 # per 10^6 CD4
- In Vitro Frequency (% CD4) ([2]; HLA allele DRB5 tetramer, peptide-stimulated PBMC cultures): 3.52 % CD4 and 0.74 % CD4

Sequence: GIFGENMFYHFLGRSGYTVH [VP2P12]
- In Vitro Frequency (% CD4) [2, 7]: 0.63 % CD4 and 0 % CD4 and 1.23 % CD4
- In Vitro Frequency (% CD4) [2, 6]: 1.55 % CD4 and 0 % CD4 and 0.38 % CD4

Sequence: HIVMQYMYVPPGAPIPTTRN [VP1P18]
- Ex Vivo Frequency (# per 10^6 CD4) ([1]; HLA allele 1*0401 tetramer): 2 # per 10^6 CD4
- Ex Vivo Frequency (# per 10^6 CD4) ([1]; HLA allele 1*0404 tetramer): 247 # per 10^6 CD4 and 10 # per 10^6 CD4 and 52 # per 10^6 CD4 and 5 # per 10^6 CD4
- Validated ([1]; HLA allele 1*0404 tetramer): Y
- In Vitro Frequency (% CD4) [2, 7]: 3.51 % CD4 and 0 % CD4 (2×)
- In Vitro Frequency (% CD4) [2, 8]: 0 % CD4 and 0.65 % CD4
- In Vitro Frequency (% CD4) [2, 3]: 1.84 % CD4 and 4.22 % CD4 and 2.76 % CD4

Sequence: ISNIVPITVSISPMCAEFSG [VP2P30]
- In Vitro Frequency (% CD4) [2, 4]: 0.46 % CD4 and 0 % CD4

Sequence: ITVSISPMCAEFSGARAKTV [VP2P31]
- In Vitro Frequency (% CD4) [2, 4]: 0.37 % CD4 and 0 % CD4

Sequence: LDSKMWNSTSKGWWWKLPDA [VP2P9]
- In Vitro Frequency (% CD4) [2, 6]: 0.22 % CD4 and 0 % CD4 (2×)

Sequence: LLGNLLIFPHQFINLRSNNS [VP2P23]
- In Vitro Frequency (% CD4) [2, 7]: 1.6 % CD4 and 3.19 % CD4 and 1.58 % CD4

Sequence: LLVVMIPEHQLATVNKGNVN [VP2P16]
- In Vitro Frequency (% CD4) [2, 4]: 0 % CD4 and 3 % CD4

Sequence: NEKQPSDDNWLNFDGTLLGN [VP2P21]
- Ex Vivo Frequency (# per 10^6 CD4) ([1]; HLA allele 1*0301 tetramer): 29 # per 10^6 CD4 and 4 # per 10^6 CD4 and 6 # per 10^6 CD4
- Validated ([1]; HLA allele 1*0301 tetramer): Y
- Ex Vivo Frequency (# per 10^6 CD4) ([1]; HLA allele 1*0401 tetramer): 9 # per 10^6 CD4 and 63 # per 10^6 CD4 and 3 # per 10^6 CD4
- Validated ([1]; HLA allele 1*0401 tetramer): Y
- In Vitro Frequency (% CD4) [2, 9]: 1.57 % CD4 and 0.87 % CD4
- In Vitro Frequency (% CD4) [2, 8]: 5.13 % CD4 and 0.89 % CD4
- In Vitro Frequency (% CD4) [2, 3]: 0 % CD4 and 0.65 % CD4

Sequence: NWLNFDGTLLGNLLIFPHQF [VP2P22]
- Ex Vivo Frequency (# per 10^6 CD4) ([1]; HLA allele 1*0401 tetramer): 1 # per 10^6 CD4
- In Vitro Frequency (% CD4) [2, 7]: 0.35 % CD4 and 0 % CD4 (2×)
- In Vitro Frequency (% CD4) [2, 9]: 2.61 % CD4 and 0.75 % CD4
- In Vitro Frequency (% CD4) [2, 8]: 3.38 % CD4 and 0.89 % CD4
- In Vitro Frequency (% CD4) [2, 6]: 0 % CD4 (2×) and 1.31 % CD4
